Data published in patent US9783527B2, “Indazole ureas and method of use” (AbbVie Inc., priority 2014, dated 2017).

How the values were obtained:
human Nav1.7 = human Nav1.7 (Homo sapiens (Human), UniProt Q15858); experiment: FRET-based membrane potential assay, recombinant human sodium channel Nav1.7; type: cell-based; conditions: HEK293 cells stably expressing recombinant human Nav1.7; depolarization with veratridine (EC80) + scorpion venom
In short: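 IC50 derived by four-parameter Hill fit of percent inhibition of depolarization, measured as peak F440-480/F565-625 ratio over baseline. Stable human Nav1.7 HEK293 cells, dye-loaded with CC2-DMPE and DiSBAC2(3)/VABSC-1 at room temperature, received compound 3 min ahead of veratridine (EC80) plus scorpion venom.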

[1] = test system: MIA-induced osteoarthritic pain in rats; experiment: Osteoarthritic (OA) pain induced by sodium monoiodoacetate (MIA), hind limb grip force; type: in vivo, rat; conditions: male Sprague Dawley rats, grip force 20 days after MIA injection
Description: Osteoarthritic (OA) Pain Induced by Sodium Monoiodoacetate (MIA)
Pain behavior was assessed by measurement of hind limb grip force (GF) in adult osteoarthritic rats. Male Sprague Dawley rats, obtained from Charles River Laboratories, (Wilmington, Mass.), weighing 150-175 g, were injected in the unilateral knee join with a single intra-articular injection of sodium monoiodoacetate (MIA, 3 mg/rat). All rats were tested at 20 days following MIA injection. A behavioral measure of activity-induced pain was carried out. Measurements of the peak hind limb grip force were conducted by recording the maximum compressive force (CFmax), in grams of force, exerted on a hind limb strain gauge setup, in a commercially available grip force measurement system (Columbus Instruments, Columbus, Ohio).
During testing, each rat was gently restrained by grasping it around its rib cage and then allowed to grasp the wire mesh frame attached to the strain gauge. The experimenter then moved the animal in a rostral-to-caudal direction until the grip was broken. Each rat was sequentially tested twice at an approximately 2-3 minute interval to obtain a raw mean grip force (CFmax). This raw mean grip force data was in turn converted to a maximum hindlimb cumulative compressive force (CFmax), as the grams of force/kg of body weight, for each animal.
For evaluating the compound effects, the hind limb grip force was conducted 20 days following the intra-articular injection of MIA. A group of age-matched nave (not injected with MIA) animals was added as a comparator to the drug-dosed groups. The vehicle control response for each group of MIA-treated animals was defined as the 0% response (0% effect), whereas the nave control group was defined as the normal response and as 100% effect. The % effect for each dose group was expressed as % return of response to normalcy, compared to the nave group. A percent maximal possible effect (% MPE) of testing compound was calculated according to the formula: (Treatment CFmax−Vehicle CFmax)/Vehicle CFmax]×100). Higher % effect numbers indicate increased relief from the pain in the model, with 100% indicating a return to the level of response seen in normal (non-osteoarthritic) animals. All experiments evaluating drug effects in this model were conducted in a randomized blinded fashion.
The animals were housed in Association for Assessment and Accreditation of Laboratory Animal Care (AAALAC) approved facilities at AbbVie Inc. in a temperature-regulated environment under a controlled 12-hour light-dark cycle, with lights on at 6:00 a.m. Food and water were available ad libitum at all times except during testing. All testing was done following procedures outlined in protocols approved by AbbVie Inc.'s Institutional Animal Care and Use Committee.

human Nav1.8 = human Nav1.8 (Homo sapiens (Human), UniProt Q9Y5Y9); experiment: FRET-based membrane potential assay, recombinant human sodium channel Nav1.8; type: cell-based; conditions: HEK293 cells stably expressing recombinant human Nav1.8; depolarization with veratridine (EC80) + scorpion venom
human Nav1.8, sequence (Q9Y5Y9 whole entry): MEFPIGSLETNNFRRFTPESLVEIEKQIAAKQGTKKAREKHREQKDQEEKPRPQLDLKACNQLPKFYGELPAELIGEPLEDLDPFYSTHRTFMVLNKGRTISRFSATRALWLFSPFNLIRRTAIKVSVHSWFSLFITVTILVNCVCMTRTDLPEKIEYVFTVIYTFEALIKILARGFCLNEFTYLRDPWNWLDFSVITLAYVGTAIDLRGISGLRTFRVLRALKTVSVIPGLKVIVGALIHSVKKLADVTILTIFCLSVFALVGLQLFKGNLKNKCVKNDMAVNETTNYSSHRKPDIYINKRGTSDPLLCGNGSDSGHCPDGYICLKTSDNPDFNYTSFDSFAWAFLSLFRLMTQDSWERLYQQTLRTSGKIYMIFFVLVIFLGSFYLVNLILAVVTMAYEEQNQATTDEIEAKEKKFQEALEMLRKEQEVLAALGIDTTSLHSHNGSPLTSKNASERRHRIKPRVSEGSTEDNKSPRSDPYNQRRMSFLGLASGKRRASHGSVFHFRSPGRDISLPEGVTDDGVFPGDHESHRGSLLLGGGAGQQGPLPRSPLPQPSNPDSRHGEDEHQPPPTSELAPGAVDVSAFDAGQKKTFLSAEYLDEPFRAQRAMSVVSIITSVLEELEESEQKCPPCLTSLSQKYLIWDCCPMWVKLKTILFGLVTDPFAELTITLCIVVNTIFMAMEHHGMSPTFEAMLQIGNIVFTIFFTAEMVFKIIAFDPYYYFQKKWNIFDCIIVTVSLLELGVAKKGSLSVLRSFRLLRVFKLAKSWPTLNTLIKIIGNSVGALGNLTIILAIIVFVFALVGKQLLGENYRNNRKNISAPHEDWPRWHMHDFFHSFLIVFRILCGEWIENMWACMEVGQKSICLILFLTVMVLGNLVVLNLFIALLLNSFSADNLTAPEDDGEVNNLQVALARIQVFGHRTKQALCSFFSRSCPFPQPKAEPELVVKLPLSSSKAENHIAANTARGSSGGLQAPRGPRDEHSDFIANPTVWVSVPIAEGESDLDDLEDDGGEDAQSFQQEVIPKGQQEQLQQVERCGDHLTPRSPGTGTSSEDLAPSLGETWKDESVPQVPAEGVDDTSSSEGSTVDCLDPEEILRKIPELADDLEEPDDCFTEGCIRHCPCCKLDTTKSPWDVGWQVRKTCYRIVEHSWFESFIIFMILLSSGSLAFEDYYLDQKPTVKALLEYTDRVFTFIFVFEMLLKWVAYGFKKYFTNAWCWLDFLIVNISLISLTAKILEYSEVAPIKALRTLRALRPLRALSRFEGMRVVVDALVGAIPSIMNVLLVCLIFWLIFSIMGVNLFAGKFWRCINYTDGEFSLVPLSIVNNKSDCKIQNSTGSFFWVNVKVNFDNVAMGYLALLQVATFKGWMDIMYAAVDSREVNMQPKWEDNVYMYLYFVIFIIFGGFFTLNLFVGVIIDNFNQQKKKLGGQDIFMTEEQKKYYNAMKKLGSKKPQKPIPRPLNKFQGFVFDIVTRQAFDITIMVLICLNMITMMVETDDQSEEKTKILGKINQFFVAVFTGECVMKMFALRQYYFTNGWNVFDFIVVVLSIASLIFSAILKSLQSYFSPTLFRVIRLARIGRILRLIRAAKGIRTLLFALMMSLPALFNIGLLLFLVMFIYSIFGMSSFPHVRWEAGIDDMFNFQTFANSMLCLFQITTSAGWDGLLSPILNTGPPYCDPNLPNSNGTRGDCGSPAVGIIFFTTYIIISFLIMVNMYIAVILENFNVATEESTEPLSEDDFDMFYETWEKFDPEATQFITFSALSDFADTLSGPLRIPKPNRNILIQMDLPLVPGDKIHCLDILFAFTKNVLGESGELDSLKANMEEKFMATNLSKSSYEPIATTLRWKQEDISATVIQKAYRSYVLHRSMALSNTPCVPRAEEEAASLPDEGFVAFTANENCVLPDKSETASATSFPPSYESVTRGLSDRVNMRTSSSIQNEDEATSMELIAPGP
In short: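 HEK293 cells stably expressing Nav1.8 were loaded with CC2-DMPE/DiSBAC2(3) FRET voltage dyes. Compounds were added 3 min before depolarization with EC80 veratridine plus scorpion venom. The F440-480/F565-625 ratio was read on FLIPR; IC50 came from four-parameter Hill fits.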

human Nav1.7, sequence (Q15858 whole entry): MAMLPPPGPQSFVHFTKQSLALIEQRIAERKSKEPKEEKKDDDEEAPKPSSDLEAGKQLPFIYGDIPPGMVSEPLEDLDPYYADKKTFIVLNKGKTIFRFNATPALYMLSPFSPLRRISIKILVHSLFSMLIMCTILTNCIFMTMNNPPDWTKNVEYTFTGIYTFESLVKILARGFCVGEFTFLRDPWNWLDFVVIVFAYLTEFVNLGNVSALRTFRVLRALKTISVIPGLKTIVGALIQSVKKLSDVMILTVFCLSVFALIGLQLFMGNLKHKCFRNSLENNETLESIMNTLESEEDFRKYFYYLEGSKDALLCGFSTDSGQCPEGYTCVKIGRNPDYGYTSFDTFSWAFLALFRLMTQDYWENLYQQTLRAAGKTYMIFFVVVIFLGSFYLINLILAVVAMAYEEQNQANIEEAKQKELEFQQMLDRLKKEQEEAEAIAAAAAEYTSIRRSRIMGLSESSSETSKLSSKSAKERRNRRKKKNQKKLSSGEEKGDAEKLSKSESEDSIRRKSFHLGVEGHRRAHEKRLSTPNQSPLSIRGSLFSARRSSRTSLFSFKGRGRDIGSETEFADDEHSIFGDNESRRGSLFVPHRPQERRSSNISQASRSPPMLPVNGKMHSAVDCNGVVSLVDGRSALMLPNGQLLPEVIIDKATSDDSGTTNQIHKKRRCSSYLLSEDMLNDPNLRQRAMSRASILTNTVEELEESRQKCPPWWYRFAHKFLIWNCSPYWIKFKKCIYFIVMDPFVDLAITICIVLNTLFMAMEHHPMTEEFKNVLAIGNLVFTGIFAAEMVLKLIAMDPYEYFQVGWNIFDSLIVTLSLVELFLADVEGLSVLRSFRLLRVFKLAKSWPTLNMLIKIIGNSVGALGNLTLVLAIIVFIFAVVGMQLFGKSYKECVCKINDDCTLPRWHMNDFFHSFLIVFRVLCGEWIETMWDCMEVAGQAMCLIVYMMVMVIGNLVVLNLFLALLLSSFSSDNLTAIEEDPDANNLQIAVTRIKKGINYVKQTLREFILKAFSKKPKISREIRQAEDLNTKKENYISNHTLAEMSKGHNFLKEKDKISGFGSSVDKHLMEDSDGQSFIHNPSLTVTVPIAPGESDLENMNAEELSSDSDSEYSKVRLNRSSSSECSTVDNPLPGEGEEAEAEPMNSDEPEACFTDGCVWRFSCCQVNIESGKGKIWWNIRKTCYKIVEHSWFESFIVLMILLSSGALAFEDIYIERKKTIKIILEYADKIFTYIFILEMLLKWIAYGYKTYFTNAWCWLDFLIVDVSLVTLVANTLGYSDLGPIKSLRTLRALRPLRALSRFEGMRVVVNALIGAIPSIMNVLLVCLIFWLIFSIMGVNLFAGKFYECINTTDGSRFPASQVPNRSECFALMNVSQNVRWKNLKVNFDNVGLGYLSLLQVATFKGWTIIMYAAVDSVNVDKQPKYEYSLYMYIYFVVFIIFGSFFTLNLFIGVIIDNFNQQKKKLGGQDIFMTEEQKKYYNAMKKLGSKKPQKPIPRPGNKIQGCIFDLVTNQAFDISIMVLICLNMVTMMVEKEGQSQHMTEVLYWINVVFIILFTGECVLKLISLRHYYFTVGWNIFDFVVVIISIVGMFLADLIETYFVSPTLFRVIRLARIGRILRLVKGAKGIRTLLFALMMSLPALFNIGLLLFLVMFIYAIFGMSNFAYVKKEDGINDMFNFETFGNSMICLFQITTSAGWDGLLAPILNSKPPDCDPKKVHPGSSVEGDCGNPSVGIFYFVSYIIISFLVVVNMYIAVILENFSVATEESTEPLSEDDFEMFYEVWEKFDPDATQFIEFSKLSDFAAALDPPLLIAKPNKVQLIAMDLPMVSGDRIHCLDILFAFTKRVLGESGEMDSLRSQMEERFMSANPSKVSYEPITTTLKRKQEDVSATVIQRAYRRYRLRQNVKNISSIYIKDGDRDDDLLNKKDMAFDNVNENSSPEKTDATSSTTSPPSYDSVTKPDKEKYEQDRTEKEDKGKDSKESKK

| SMILES | IC50 (human Nav1.7) | OA MPE (%) ([1]; OA dose 10 mg/kg) | OA MPE (%) ([1]; OA dose 30 mg/kg) | IC50 (human Nav1.8) |
| --- | --- | --- | --- | --- |
| Cc1cnc(CN2CCN(c3cccc4c3cnn4-c3ccccc3F)C2=O)o1 [Example 41, 1-[1-(2-fluorophenyl)-1H-indazol-4-yl]-3-[(5-methyl-1,3-oxazol-2-yl)methyl]imidazolidin-2-one] | 1.57 µM | 47% |  |  |
| O=C1N(Cc2cocn2)CCN1c1cccc2c1cnn2-c1ccc(F)cc1F [Example 37, 1-[1-(2,4-difluorophenyl)-1H-indazol-4-yl]-3-(1,3-oxazol-4-ylmethyl)imidazolidin-2-one] | 0.392 µM | 35% |  |  |
| Cc1csc(CN2CCN(c3cccc4c3cnn4-c3ccccc3F)C2=O)n1 [Example 24, 1-[1-(2-fluorophenyl)-1H-indazol-4-yl]-3-[(4-methyl-1,3-thiazol-2-yl)methyl]imidazolidin-2-one] | 0.338 µM | 62% |  |  |
| O=C1N(c2ccncc2)CCN1c1cccc2c1cnn2-c1ccccc1F [Example 20, 1-[1-(2-fluorophenyl)-1H-indazol-4-yl]-3-(pyridin-4-yl)imidazolidin-2-one] |  | 91% |  |  |
| O=C(CN1CCCN(c2cccc3c2cnn3-c2ccccc2F)C1=O)N1CC[C@H](F)C1 [Example 23, 1-[1-(2-fluorophenyl)-1H-indazol-4-yl]-3-{2-[(3S)-3-fluoropyrrolidin-1-yl]-2-oxoethyl}tetrahydropyrimidin-2(1H)-one] | 1.47 µM |  | 45% |  |
| Cc1cncc(CN2CCN(c3cccc4c3cnn4-c3ccccc3F)C2=O)n1 [Example 42, 1-[1-(2-fluorophenyl)-1H-indazol-4-yl]-3-[(6-methylpyrazin-2-yl)methyl]imidazolidin-2-one] |  | 35% |  |  |
| O=C(CN1CCN(c2cccc3c2cnn3-c2ccccc2F)C1=O)NC1CC1 [Example 13, N-cyclopropyl-2-{3-[1-(2-fluorophenyl)-1H-indazol-4-yl]-2-oxoimidazolidin-1-yl}acetamide] |  |  | 47% |  |
| O=C(CN1CCN(c2cccc3c2cnn3-c2ccccc2F)C1=O)N1CCC[C@H](F)C1 [Example 54, 1-[1-(2-fluorophenyl)-1H-indazol-4-yl]-3-{2-[(3S)-3-fluoropiperidin-1-yl]-2-oxoethyl}imidazolidin-2-one] |  |  | 57% |  |
| CCc1cc(CN2CCN(c3cccc4c3cnn4-c3ccccc3F)C2=O)on1 [Example 45, 1-[(3-ethyl-1,2-oxazol-5-yl)methyl]-3-[1-(2-fluorophenyl)-1H-indazol-4-yl]imidazolidin-2-one] | 1.12 µM | 43% |  |  |
| C[C@H]1CN(c2cccc3c2cnn3-c2ccccc2F)C(=O)N1Cc1ncco1 [Example 38, (4S)-1-[1-(2-fluorophenyl)-1H-indazol-4-yl]-4-methyl-3-(1,3-oxazol-2-ylmethyl)imidazolidin-2-one] | 1.39 µM | 33% |  |  |
| O=C1N(CC(=O)N2C[C@@H]3C[C@H]2CO3)CCN1c1cccc2c1cnn2-c1ccccc1F [Example 16, 1-[1-(2-fluorophenyl)-1H-indazol-4-yl]-3-{2-[(1S,4S)-2-oxa-5-azabicyclo[2.2.1]hept-5-yl]-2-oxoethyl}imidazolidin-2-one] | 0.738 µM |  | 67% |  |
| O=C1N(Cc2cnccn2)CCN1c1cccc2c1cnn2-c1ccccc1F [Example 35, 1-[1-(2-fluorophenyl)-1H-indazol-4-yl]-3-(pyrazin-2-ylmethyl)imidazolidin-2-one] | 0.747 µM | 19% |  |  |
| Cc1nccnc1CN1CCN(c2cccc3c2cnn3-c2ccccc2F)C1=O [Example 43, 1-[1-(2-fluorophenyl)-1H-indazol-4-yl]-3-[(3-methylpyrazin-2-yl)methyl]imidazolidin-2-one] | 0.915 µM |  | 71% |  |
| O=C1N(Cc2nc(C(F)(F)F)cs2)CCN1c1cccc2c1cnn2-c1ccccc1F [Example 14, 1-[1-(2-fluorophenyl)-1H-indazol-4-yl]-3-{[4-(trifluoromethyl)-1,3-thiazol-2-yl]methyl}imidazolidin-2-one] | 0.618 µM |  | 60% |  |
| O=C1N(Cc2ncco2)CCN1c1cccc2c1cnn2-c1ccc(F)cc1F [Example 36, 1-[1-(2,4-difluorophenyl)-1H-indazol-4-yl]-3-(1,3-oxazol-2-ylmethyl)imidazolidin-2-one] | 0.643 µM | 27% |  |  |
| O=C1N(Cc2nnco2)CCN1c1cccc2c1cnn2-c1ccccc1F [Example 29, 1-[1-(2-fluorophenyl)-1H-indazol-4-yl]-3-(1,3,4-oxadiazol-2-ylmethyl)imidazolidin-2-one] | 2.19 µM | 46% |  |  |
| O=C1N(CC(=O)N2C[C@@H](F)C[C@@H]2c2cc(F)ccc2F)CCN1c1cccc2c1cnn2-c1ccccc1F [Example 18, 1-{2-[(2R,4S)-2-(2,5-difluorophenyl)-4-fluoropyrrolidin-1-yl]-2-oxoethyl}-3-[1-(2-fluorophenyl)-1H-indazol-4-yl]imidazolidin-2-one] | 0.578 µM | 65% |  |  |
| O=C1N(Cc2nnc(C3CC3)s2)CCN1c1cccc2c1cnn2-c1ccccc1F [Example 30, 1-[(5-cyclopropyl-1,3,4-thiadiazol-2-yl)methyl]-3-[1-(2-fluorophenyl)-1H-indazol-4-yl]imidazolidin-2-one] | 1.3 µM | 80% |  |  |
| Cc1nnc(CN2CCN(c3cccc4c3cnn4-c3ccccc3F)C2=O)s1 [Example 40, 1-[1-(2-fluorophenyl)-1H-indazol-4-yl]-3-[(5-methyl-1,3,4-thiadiazol-2-yl)methyl]imidazolidin-2-one] | 3.15 µM | 41% |  |  |
| O=C(CN1CCN(c2cccc3c2cnn3-c2ccccc2F)C1=O)N1CCCC(F)C1 (stereo not drawn) [Example 17, 1-[1-(2-fluorophenyl)-1H-indazol-4-yl]-3-[2-(3-fluoropiperidin-1-yl)-2-oxoethyl]imidazolidin-2-one] |  |  | 91% |  |
| O=C1C[C@H]2CC[C@@H](C1)N2C(=O)CN1CCN(c2cccc3c2cnn3-c2ccccc2F)C1=O [Example 311, (1R,5S)-8-({3-[1-(2-fluorophenyl)-1H-indazol-4-yl]-2-oxoimidazolidin-1-yl}acetyl)-8-azabicyclo[3.2.1]octan-3-one] | 5.85 µM |  |  | 4.35 µM |
| O=C(CN1CCN(c2cccc3c2cnn3-c2ccccc2F)C1=O)N1C[C@H]2CC[C@@H](C1)O2 [Example 301, 1-[1-(2-fluorophenyl)-1H-indazol-4-yl]-3-{2-[(1R,5S)-8-oxa-3-azabicyclo[3.2.1]oct-3-yl]-2-oxoethyl}imidazolidin-2-one] | 3.16 µM |  |  | 1.56 µM |
| O=C(CN1CCN(c2cccc3c2cnn3-c2ccccc2F)C1=O)NC1CCCC1 [Example 323, N-cyclopentyl-2-{3-[1-(2-fluorophenyl)-1H-indazol-4-yl]-2-oxoimidazolidin-1-yl}acetamide] | 1.46 µM |  |  | 0.695 µM |
| CC(C)(C)OC(=O)CCN1CCN(c2cccc3c2cnn3-c2ccccc2F)C1=O [Example 289, tert-butyl 3-{3-[1-(2-fluorophenyl)-1H-indazol-4-yl]-2-oxoimidazolidin-1-yl}propanoate] | 2.71 µM |  |  | 2.05 µM |
| O=C1N(c2cccc3c2cnn3-c2ccccc2F)CCN1[C@H]1CCCC[C@@H]1O [Example 276, 1-[1-(2-fluorophenyl)-1H-indazol-4-yl]-3-[(1S,2S)-2-hydroxycyclohexyl]imidazolidin-2-one] | 15.1 µM |  |  | 6.44 µM |
